Legend:
recombinant human ALDH2 = recombinant human ALDH2 (Homo sapiens (Human), UniProt P05091); test: ALDH2 assay (NADH formation); format: biochemical; settings: 60 min pre-incubation, 150 uM formaldehyde, 2.5 mM NAD+; read-out: IC50 HALDH2
Method: Standard ALDH2 reaction mixtures contained 150 uM formaldehyde, 2.5 mM NAD^+, 10 mM MgCl2 and 10 nM recombinant human ALDH2 in 50 mM Hepes buffer, pH 7.4, 0.01% Tween 20 in a final volume of 50 ul using 384-well plates. After 60 min of pre-incubation of compound with ALDH2 and formaldehyde, the reaction was started by adding NAD+ and the reaction mixture was allowed to proceed for 90 minutes. Activity of the enzyme was determined by monitoring NADH formation using Perkin-Elmer Envision Reader with excitation and emission wavelengths set at 340 and 460 nm, respectively.
(§1) Note: […] refers to the concentration of a compound that inhibits a reaction by 50%. In the case of competitive inhibition, IC50=2Ki when the substrate is present at the Km concentration, as per the relationship: Ki=IC50/[1+(substrate concentration/Km)].

HMAO-A = HMAO-A (Homo sapiens (Human), UniProt P21397); test: MAO-A assay (luminogenic MAO substrate); format: biochemical; settings: microsome MAO-A, 160 uM substrate
Sequence of HMAO-A (P21397 whole entry): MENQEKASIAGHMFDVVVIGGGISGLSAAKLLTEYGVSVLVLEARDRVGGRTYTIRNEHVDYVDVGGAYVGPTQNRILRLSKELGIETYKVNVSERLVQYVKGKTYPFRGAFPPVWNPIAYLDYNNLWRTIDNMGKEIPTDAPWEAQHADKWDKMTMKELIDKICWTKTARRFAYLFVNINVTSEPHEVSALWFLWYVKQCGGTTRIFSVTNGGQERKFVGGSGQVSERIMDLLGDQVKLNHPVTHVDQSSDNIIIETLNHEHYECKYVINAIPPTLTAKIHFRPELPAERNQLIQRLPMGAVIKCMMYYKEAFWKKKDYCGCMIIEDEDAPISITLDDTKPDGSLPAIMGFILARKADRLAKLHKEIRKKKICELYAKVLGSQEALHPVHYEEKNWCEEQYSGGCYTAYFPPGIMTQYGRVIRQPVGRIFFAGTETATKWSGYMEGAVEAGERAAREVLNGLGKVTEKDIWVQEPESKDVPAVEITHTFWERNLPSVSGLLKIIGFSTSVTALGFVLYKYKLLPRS
Method: (§2) MAO assays included luminogenic MAO substrate, reaction buffers, Luciferin Detection and the reconstitution buffer with eserase. Standard MAO reaction mixtures included microsome contained MAO-A (2 ug) or MAO-B (10 ug), 160 uM substrate for MAO-A or 16 uM substrate for MAO-B, MAO-A buffer (100 mM Hepes buffer, pH 7.5, 5% glycerol) or MAO-B buffer (100 mM Hepes, pH 7.5, 5% glycerol, 10% dimethyl sulfoxide) in a final volume of 30 ul. After 20 minutes of pre-incubation of the enzyme with compounds, the reaction was initiated by adding enzyme substrate and the reaction was allowed to proceed for 60 minutes. Reconstituted Luciferin Detection Reagent (30 ul) was then added is added to simultaneously stop the MAO reaction and convert the methyl ester derivative to luciferin and produce light. The amount of light produced is directly proportional to the activity of MAO. The mixtures were further incubated for 20 minutes and activity of the enzyme was determined using Perkin-Elmer Envision Reader.
as §1

Male SD rats [1] = test: Rat nicotine self administration, acute treatment; format: in vivo
Method: (§3) Male SD rats were trained to self administer i.v. nicotine (0.03 mg/kg/inj) daily (Monday to Friday) in standard operant chambers with retractable levers (MED Associates, Inc) as previously published (Levin et al., 2003; Levin et al., 2007). During the daily 45 min session, rats received 0.05 ml infusion of 0.03 mg/kg/infusion of nicotine every time the active lever was pressed. A cue light and tone turned on for 0.5 sec together with the activation of a pump that delivered the nicotine solution. Daily sessions were run for at least 10 days before the initiation of drug testing. Solutions of compounds of Example 2 and Example 5 were prepared fresh daily in Formulation 2B: 25% PEG400/5% Vit E TPGS/1% SLS/69% water with 0.5% Methocel) for oral dosing. Compound of Example 2 doses were administered in a counterbalanced design for testing 1 hr before each nicotine session. Every rat received all drug doses and vehicle in a randomly assigned order. The oral drug administrations were made twice per week.
Compound of Example 5 was tested in a study using 4 independent groups. Each group received either oral vehicle or 1 of the 3 doses of compound of Example 5 (5, 10 or 30 mg-eq/kg). […] The 5 mg/kg dose was ineffective.

HMAO-B = HMAO-B (Homo sapiens (Human), UniProt P27338); test: MAO-B assay (luminogenic MAO substrate); format: biochemical; settings: microsome MAO-B, 16 uM substrate
Sequence of HMAO-B (P27338 whole entry): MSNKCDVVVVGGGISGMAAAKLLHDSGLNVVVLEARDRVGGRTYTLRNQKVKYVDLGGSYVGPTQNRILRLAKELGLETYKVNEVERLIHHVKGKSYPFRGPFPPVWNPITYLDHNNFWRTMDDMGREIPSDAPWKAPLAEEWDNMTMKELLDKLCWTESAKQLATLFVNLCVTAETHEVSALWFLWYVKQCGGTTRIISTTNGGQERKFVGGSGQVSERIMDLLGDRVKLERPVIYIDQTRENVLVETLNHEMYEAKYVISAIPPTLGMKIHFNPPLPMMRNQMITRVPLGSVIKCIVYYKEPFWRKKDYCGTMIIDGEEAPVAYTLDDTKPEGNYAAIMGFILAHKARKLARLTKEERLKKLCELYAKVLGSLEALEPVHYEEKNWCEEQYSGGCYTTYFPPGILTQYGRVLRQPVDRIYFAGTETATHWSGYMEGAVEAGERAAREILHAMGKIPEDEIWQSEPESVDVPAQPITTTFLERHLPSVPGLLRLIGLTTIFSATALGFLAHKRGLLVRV
Method: as §2, §1

[2] = tested on: male Sprague Dawley (SD) rats; test: Rat cocaine cue reinstatement; format: in vivo; settings: for inhibition of cocaine cue reinstatement compared to vehicle: 1 hr before session
Method: Training of male Sprague Dawley (SD) rats had 3 separate stages. First, during self administration, animals were trained to lever press for cocaine with presentation of concomitant cues associated with drug delivery. Rats that reached criteria for addiction were included in the study. Afterward, during cue extinction, cocaine-cue dependent behavior was extinguished. Lastly, during cocaine cue reinstatement, the effect of compounds was tested on lever presses upon cue presentation (FIG. 2).
Rats were trained to self administer i.v. cocaine (0.35 mg/kg/injection) daily (Monday to Friday) in standard operant chambers with retractable levers (Coulbourn Instruments, PA). During the daily 2 hr session, rats received a 0.05 ml infusion of 0.35 mg/kg cocaine every time the active lever was pressed. A cue light and tone turned on for 2 sec together with activation of a pump that delivered the cocaine solution. Rats were required to maintain an infusion rate of ≧20+ per day for at least 10 days before being moved to extinction training.
During extinction sessions lever presses no longer produced cocaine infusion and cue light/tone presentation was absent. Rats received a maximum of 15 extinction sessions.
On the next day after reaching extinction criteria, rats were treated orally with vehicle (Formulation 2B: 25% PEG400/5% Vit E TPGS/1% SLS/69% water with 0.5% Methocel) or drug (compound of Example 2 or compound of Example 5) before the cue reinstatement session. Cue reinstatement began with a tone and cue light. This 2 hr session was identical to the self-administration session (cue light and tone present upon active lever press) except that no cocaine was delivered. The number of active lever presses was compared to extinction lever responding. This is considered a measure of reinstatement. The next day, rats were returned to extinction sessions for at least 2 or 3 more sessions. Rats then received a second and last reinstatement session with an opposite treatment to the one received on the first reinstatement session (vehicle or drug treatment). […] The light/tone presentation triggers this response and it is interpreted as a measure of reinstatement even though cocaine is not available.

[3] = tested on: Alcohol-preferring (iP) male rats; test: Rat alcohol self administration; format: in vivo; settings: 1 hr before session, vs vehicle
Description: Alcohol-preferring (iP) male rats were trained to daily (Monday to Friday) self-administer alcohol (10% v/v) under operant conditions. A fixed-ratio of 3 (FR3), where rats had to press a lever 3 times to get one drop of alcohol during 20-min sessions was used (Cowen et al, 2005a; Cowen et al., 2005b; Lawrence et al., 2006). Availability of alcohol was conditioned by the presence of an olfactory cue (2 drops of vanilla essence, placed on the bedding of the operant chamber directly under the active lever), plus a 1-sec light stimulus when FR3 was obtained. For each session, total alcohol and water responses were recorded. Following acquisition of lever pressing behavior and stable alcohol self-administration, rats were administered oral vehicle or compound of Example 5 (5, 10 and 30 mg-eq/kg) 1 hr before each session in a counterbalanced order. Every rat received all drug doses and vehicle once per week in a randomly assigned order.

Male SD rats [4] = test: Rat nicotine self administration, 7-day chronic treatment; format: in vivo
Method: as §3
Upon completion of the acute compound of Example 5 treatment study, the same animals were used to test the effect of 7-day chronic oral administration of compound of Example 5 in the nicotine self administration model. Rats were treated orally with compound of Example 5 (5, 10 or 30 mg-eq/kg) or vehicle 1 hr before nicotine self administration session for 7 consecutive days. […] Similar to the acute treatment, the 5 mg-eq/kg dose was ineffective (FIG. 7). […] Animals in nicotine self administration studies had to reach pre defined criteria (e.g. rat strain, minimum number of nicotine infusions, consistent baseline nicotine self administration throughout the study, patent iv catheters, etc.) to be included in analysis.

Sequence of recombinant human ALDH2 (P05091 18-517): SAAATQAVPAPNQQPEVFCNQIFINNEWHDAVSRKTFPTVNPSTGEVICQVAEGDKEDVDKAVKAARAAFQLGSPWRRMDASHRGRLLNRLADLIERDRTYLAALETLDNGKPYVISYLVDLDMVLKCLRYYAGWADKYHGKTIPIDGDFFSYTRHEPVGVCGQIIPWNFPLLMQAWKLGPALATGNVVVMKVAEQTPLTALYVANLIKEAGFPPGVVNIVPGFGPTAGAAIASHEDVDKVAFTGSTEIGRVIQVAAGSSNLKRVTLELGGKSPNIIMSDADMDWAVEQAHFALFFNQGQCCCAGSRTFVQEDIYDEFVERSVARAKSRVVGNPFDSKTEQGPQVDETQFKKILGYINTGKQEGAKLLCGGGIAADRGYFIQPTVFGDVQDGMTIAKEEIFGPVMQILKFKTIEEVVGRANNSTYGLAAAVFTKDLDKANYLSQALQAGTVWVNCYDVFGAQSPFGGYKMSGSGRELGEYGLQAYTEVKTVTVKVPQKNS

## O=C(NCc1ccc(-c2cc[nH]c(=O)c2)cc1)c1c(Cl)cccc1Cl [Compound 2, 2,6-dichloro-N-[4-(2-oxo-1,2-dihydro-pyridin-4-yl)-benzyl]-benzamide]
Recombinant human ALDH2
  IC50: 0.102 µM
HMAO-A
  IC50: > 130 µM
Male SD rats [1]; 1 mg/kg oral, 1 hr before session
  effect on number of nicotine infusions compared to vehicle: without effect
Male SD rats [1]; 5 mg/kg oral, 1 hr before session
  effect on number of nicotine infusions compared to vehicle: without effect
Male SD rats [1]; 10 mg/kg oral, 1 hr before session
  inhibition of number of nicotine infusions compared to vehicle: 26%
Male SD rats [1]; 30 mg/kg oral, 1 hr before session
  inhibition of number of nicotine infusions compared to vehicle: 28%
Male SD rats [1]; 60 mg/kg oral, 1 hr before session
  inhibition of number of nicotine infusions compared to vehicle: 31%
HMAO-B
  IC50: > 130 µM
[2]; 5 mg/kg oral
  reduction of cocaine cue-induced reinstatement (lever presses) compared to vehicle: 69%
[2]; 10 mg/kg oral
  reduction of cocaine cue-induced reinstatement (lever presses) compared to vehicle: 72%
[2]; 30 mg/kg oral
  reduction of cocaine cue-induced reinstatement (lever presses) compared to vehicle: 86%

## O=C(NCc1ccc(-c2ccn(COP(=O)(O)O)c(=O)c2)cc1)c1c(Cl)cccc1Cl [Compound 14, phosphoric acid mono-(4-{4-[(2,6-dichloro-benzoylamino)-methyl]-phenyl}-2-oxo-2H-pyridin-1-ylmethyl) ester]
Recombinant human ALDH2
  IC50: > 10 µM
HMAO-A
  IC50: > 130 µM
Male SD rats [1]; 5 mg-eq/kg oral, independent groups
  effect on number of nicotine infusions compared to vehicle: ineffective
Male SD rats [1]; 10 mg-eq/kg oral, independent groups
  inhibition of number of nicotine infusions compared to vehicle: 51%
Male SD rats [1]; 30 mg-eq/kg oral, independent groups
  inhibition of number of nicotine infusions compared to vehicle: 68%
[3]; 10 mg-eq/kg oral
  number of lever presses for alcohol: significantly decreased
[3]; 30 mg-eq/kg oral
  number of lever presses for alcohol: significantly decreased
HMAO-B
  IC50: > 130 µM
Male SD rats [4]; 5 mg-eq/kg oral, 7 consecutive days
  effect on number of nicotine infusions compared to vehicle: ineffective
Male SD rats [4]; 10 mg-eq/kg oral, 7 consecutive days
  inhibition of number of nicotine infusions compared to vehicle: 48%
Male SD rats [4]; 30 mg-eq/kg oral, 7 consecutive days
  inhibition of number of nicotine infusions compared to vehicle: 62%
Male SD rats [4]; 7-day chronic oral administration, data not shown
  tolerance to the therapeutic effect: no development of tolerance
[2]; 2.5 mg-eq/kg oral, p>0.05, N.S.
  inhibition of cocaine cue reinstatement compared to vehicle: 30%
[2]; 2.5 mg-eq/kg oral, lowest dose tested
  effect on cocaine cue reinstatement versus vehicle: not significantly different from vehicle
[2]; 5 mg-eq/kg oral
  inhibition of cocaine cue reinstatement compared to vehicle: 59%
[2]; 10 mg-eq/kg oral
  inhibition of cocaine cue reinstatement compared to vehicle: 55%
[2]; 30 mg-eq/kg oral
  inhibition of cocaine cue reinstatement compared to vehicle: 50%

— patent US9000015B2, “Compounds for the treatment of addiction” (Gilead Sciences, Inc., priority 2011, dated 2015)
